Activity calls are given as the source filed them. The calls are words filed in the database; no cut-off is given here.
Legend:
U-87 MG [1] = test: Cytotoxicity against human U-87 MG cells assessed as cell viability using raw interpretation method; type: functional, cell-based, U-87MG ATCC
SH-SY5Y [2] = test: Cytotoxicity against human SH-SY5Y cells assessed as cell viability at 5 uM upto 72 hrs by MTT assay; type: functional; conditions: time hrs <=72, read-out: Activity
SH-SY5Y [3] = test: Cytotoxicity against human SH-SY5Y cells assessed as cell viability using raw interpretation method; type: functional, cell-based
U-87 MG [4] = test: Cytotoxicity against human U-87 MG cells assessed as cell viability at 10 uM upto 72 hrs by MTT assay; type: functional, U-87MG ATCC; conditions: time hrs <=72, read-out: Activity
U-87 MG [5] = test: Cytotoxicity against human U-87 MG cells assessed as cell viability at 5 uM upto 72 hrs by MTT assay; type: functional, U-87MG ATCC; conditions: time hrs <=72, read-out: Activity
SH-SY5Y [6] = test: Cytotoxicity against human SH-SY5Y cells assessed as cell viability at 10 uM upto 72 hrs by MTT assay; type: functional; conditions: time hrs <=72, read-out: Activity
U-87 MG [7] = test: Cytotoxicity against human U-87 MG cells using best fit nonlinear regression analysis; type: functional, cell-based, U-87MG ATCC
SH-SY5Y [8] = test: Cytotoxicity against human SH-SY5Y cells using best fit nonlinear regression analysis; type: functional, cell-based
U-87 MG [9] = test: Cytotoxicity against human U-87 MG cells by sulforhodamine B assay; type: functional, cell-based, U-87MG ATCC
U-251 = test: Cytotoxicity against human U-251 cells by sulforhodamine B assay; type: functional, cell-based
U-87 MG [10] = test: Cytotoxicity against human U-87 MG cells assessed as TMZ-induced cell death at 0.35 to 2.8 uM cotreated with 176 to 704 uM of TMZ incubated upto 72 hrs by MTT assay; type: functional, cell-based; conditions: U-87MG ATCC, dose 0.35-2.8 µM, time hrs <=72
U-87 MG [11] = test: Induction of morphological changes in human U-87 MG cells assessed as appearance of shrunken cell bodies at 1408 uM measured after 72 hrs by phase contrast microscopy; type: functional, U-87MG ATCC
U-87 MG [12] = test: Induction of morphological changes in human U-87 MG cells assessed as cell death at 4.2 uM cotreated with 1408 uM of TMZ measured after 72 hrs by phase contrast microscopy; type: functional, U-87MG ATCC
U-87 MG [13] = test: Cytotoxicity against human U-87 MG cells assessed as TMZ-induced cell death at 4.2 uM cotreated with 1408 uM of TMZ incubated upto 72 hrs by MTT assay; type: functional, cell-based; conditions: U-87MG ATCC, time hrs <=72
SH-SY5Y [14] = test: Cytotoxicity against human SH-SY5Y cells assessed as TMZ-induced cell death at 1.4 uM cotreated with 176 uM of TMZ incubated upto 72 hrs by MTT assay; type: functional, cell-based; conditions: time hrs <=72
U-87 MG [15] = test: Induction of morphological changes in human U-87 MG cells assessed as membrane blebbing at 1408 uM measured after 72 hrs by phase contrast microscopy; type: functional, U-87MG ATCC
U-87 MG [16] = test: Effect on cell morphology in human U-87 MG cells at 4.2 uM cotreated with 1408 uM of TMZ measured after 72 hrs by phase contrast microscopy; type: functional, cell-based; conditions: U-87MG ATCC
U-87 MG [17] = test: Induction of morphological changes in human U-87 MG cells assessed as appearance of undergoing apoptosis at 1408 uM measured after 72 hrs by phase contrast microscopy; type: functional, U-87MG ATCC

CC(C)C[C@@H]1NC(=O)CNC(=O)[C@H](CC(N)=O)NC(=O)[C@H](CCCNC(=N)N)NC(=O)[C@H]([C@@H](C)O)NC(=O)[C@@H]2CSSC[C@@H]3NC(=O)[C@H]([C@@H](C)O)NC(=O)CNC(=O)CNC(=O)[C@H](C(C)C)NC(=O)[C@@H]4CSSC[C@H](NC(=O)[C@H]([C@@H](C)O)NC(=O)[C@H](CSSC[C@H](NC(=O)[C@H](C(C)C)NC(=O)[C@@H]5CCCN5C1=O)C(=O)NCC(=O)N[C@@H](CCC(=O)O)C(=O)N[C@@H]([C@@H](C)O)C(=O)N4)NC(=O)CNC(=O)[C@@H]1CCCN1C(=O)[C@H]([C@@H](C)O)NC(=O)[C@H](CC(N)=O)NC3=O)C(=O)N[C@@H](CO)C(=O)N[C@@H](Cc1c[nH]c3ccccc13)C(=O)N1CCC[C@H]1C(=O)N[C@@H](C(C)C)C(=O)N2
IC50 (U-87 MG [1]): 7.97 µM
viability at 5 µM (SH-SY5Y [2]): 60%
IC50 (SH-SY5Y [3]): 6.05 µM
viability at 10 µM (U-87 MG [4]): 40%
viability at 5 µM (U-87 MG [5]): 60%
viability at 10 µM (SH-SY5Y [6]): 20%
IC50 (U-87 MG [7]): 7.93 µM
IC50 (SH-SY5Y [8]): 5.56 µM
IC50 (U-87 MG [9]): 3.21 µM
IC50 (U-251): 10.9 µM

CC(C)C[C@@H]1NC(=O)CNC(=O)[C@H](CC(N)=O)NC(=O)[C@H](CCCNC(=N)N)NC(=O)[C@H](CO)NC(=O)[C@@H]2CSSC[C@@H]3NC(=O)[C@H]([C@@H](C)O)NC(=O)CNC(=O)CNC(=O)[C@H](C(C)C)NC(=O)[C@@H]4CSSC[C@H](NC(=O)[C@H]([C@@H](C)O)NC(=O)[C@H](CSSC[C@H](NC(=O)[C@H](C(C)C)NC(=O)[C@@H]5CCCN5C1=O)C(=O)NCC(=O)N[C@@H](CCC(=O)O)C(=O)N[C@@H]([C@@H](C)O)C(=O)N4)NC(=O)CNC(=O)[C@@H]1CCCN1C(=O)[C@H]([C@@H](C)O)NC(=O)[C@H](CC(N)=O)NC3=O)C(=O)N[C@@H](CO)C(=O)N[C@@H](Cc1c[nH]c3ccccc13)C(=O)N1CCC[C@H]1C(=O)N[C@@H](C(C)C)C(=O)N2
Activity (U-87 MG [10]): Active
IC50 (U-87 MG [1]): 3.76 µM
Activity (U-87 MG [11]): 40%
Activity (U-87 MG [12]): 50%
viability at 5 µM (SH-SY5Y [2]): 13.2%
IC50 (SH-SY5Y [3]): 3.53 µM
viability at 5 µM (U-87 MG [5]): 29.6%
IC50 (U-87 MG [7]): 2.91 µM
Activity (U-87 MG [13]): Active
Activity (SH-SY5Y [14]): Active
Activity (U-87 MG [15]): 40%
IC50 (SH-SY5Y [8]): 2.88 µM
Activity (U-87 MG [16]): Active
Activity (U-87 MG [17]): 40%
IC50 (U-251): 37.2 µg/mL

Source: ChEMBL document CHEMBL5046264, “Cyclotides Chemosensitize Glioblastoma Cells to Temozolomide” (J Nat Prod, 2022)
